Experimental findings from PubChem BioAssay (NCI) are described below.

Test systems include SN12K1 renal; P388 leukemia; P388/ADR leukemia; RXF-631 renal.
Holding throughout (assay): NCI tumour cell line growth inhibition, 48 h

Molecules are shown by their SMILES.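 Five compound concentrations were applied to cells in 96-well plates for 48 hours; endpoints were derived by simple linear interpolation of the resulting dose-response curve. TGI is the concentration that stops growth completely.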

Consider `O=C(O)/C=C/c1c[nH]c(=O)[nH]c1=O`, for which the TGI in the assay with SN12K1 renal, with P388 leukemia and with P388/ADR leukemia was above 500 µM throughout.
In turn, `C=C=CC(NC(=O)c1ccccc1)(C(=O)O)C(F)(F)F` (stereo not given) had a TGI in the assay on RXF-631 renal above 100 µM.
Turning to `NC(=O)CC(N=Cc1nc(-c2ccccc2)oc1O)C(=O)O` (stereo not given), the TGI with RXF-631 renal was above 100 µM.
